Measurements taken from patent US20090210952A1, “Compositions and Methods Related to Controlled Gene Expression Using Viral Vectors” (priority 2005, published 2009).

Key:
[1] = tested on: transgenic mice containing a tet regulatable system; conditions: previous study; cited from earlier work
[2] = tested on: transgenic mice; test: Induction of eGFP expression in transgenic mice by drinking water containing DOX; assay type: in vivo, mouse
Description: To determine whether the inducible constructs could induce eGFP expression in vivo, the transgenic mice were fed drinking water containing 100 μg/ml DOX. GFP expression in the body (paw) and PBMCs was analyzed by fluorescent microscopy and FACS analysis before and after the transgenic mice were fed DOX.
A previous study reported that a DOX concentration of 0.1-10 mg/ml in the drinking water of transgenic mice containing a tet regulatable system, was required for inducible gene expression within the animal. To determine the concentration of DOX required for inducible expression of GFP in the transgenic mice described above, the F1 mice from CAG-founder 6# were divided into the four groups which were fed drinking water containing different concentrations of DOX including 0 ug/ml (Group 1), 4 ug/ml (Group 2), 20 ug/ml (Group 3), and 100 ug/ml (Group 4). GFP expression was monitored by visualizing GFP expression in the fingers of the transgenic mouse under UV light after 0, 1, 2, 3, 5 and 18 days of feeding the mice DOX. The intensity of the fluorescent signal in the fingers of the tested mice over the course of the experiment was observed. […] The intensity of the fluorescent signal for Groups 3 and 4 expressed their highest level of GFP expression after 5 days of DOX feeding. In addition, 4 ug/ml of DOX fed to the mice of Group 2 mice was sufficient to induce GFP expression, however the induction was delayed and the intensity was relatively weak as compared to Group 3 and 4 mice. Also of note is that the intensity of a fluorescent signal appeared in a does-dependent manner.
Using the FACS, positive blood cells expressing GFP were isolated and quantified. […] For all mice of Groups 2, 3 and 4, both the number and intensity of GFP expressing cells increased after the mice were fed DOX.
To determine the pharmacokinetics of DOX, 43% of the blood cells expressed GFP from Group 4 mice (after 18 days of DOX feeding), this level was used to set the threshold of 100 percent induction.

[3] = tested on: GFP expression; test: DOX concentration required to induce GFP expression in infected cells (fluorescent microscopy); assay type: cell-based; conditions: within 48 hours; cells infected with viral particles from pHReGFPO2/EFtet/blas
Description: To determine the DOX concentration required to induce gene expression in the single vector system, different concentration of DOX were added to cells infected with viral particles derived from pHReGFPO2/EFtet/blas (titer 2.5×10^6/ml). GFP expression was monitored by fluorescent microscopy.

Q: Which “DOX concentration in the drinking water required for inducible gene expression” value [1] does the source give for `C[C@H]1c2cccc(O)c2C(O)=C2C(=O)[C@]3(O)C(O)=C(C(N)=O)C(=O)[C@@H](N(C)C)[C@@H]3[C@@H](O)[C@@H]21` [DOX, doxycycline] here?
A: 0.1 to 10 mg/mL

Q: What about the “time of DOX feeding until mice began to express GFP” value ([2]; 20 ug/ml and 100 ug/ml DOX (Group 3 and Group 4)) of the same molecule?
A: 1 days

Q: And the “time of DOX feeding to highest level of GFP expression” value ([2]; 20 ug/ml and 100 ug/ml DOX (Groups 3 and 4))?
A: 5 days

Q: What about the “DOX concentration in drinking water sufficient to induce GFP expression” value ([2]; F1 mice from CAG-founder 6#, fingers under UV light, induction delayed, intensity relatively weak) of the same molecule?
A: 4 µg/mL

Q: And the “blood cells expressing GFP” value ([2]; Group 4 (100 ug/ml DOX), after 18 days of DOX feeding, FACS)?
A: 43%

Q: What about the “DOX sufficient to induce GFP expression” value [3] of the same molecule?
A: 15 ng
